Test [1] deals with T1, NLRP3 (Homo sapiens, UniProt Q96P20). In words: THP-1 cells pyroptosis assay. The format is cell-based. Set-up: Seed THP-1 cells (25,000 cells/well) containing 1.0 μg/ml LPS in 40 μl of RPMI medium; host or cells: THP-1 cells. The following applies: LPS 1 μg/ml, compound 3 hrs, nigericin 5 μM 1 hr, resazurin readout. As for the experimental part:
THP-1 cells (ATCC #TIB-202) were grown in RPMI containing L-glutamine (Gibco #11835) supplemented with 1 mM sodium pyruvate (Sigma #S8636) and penicillin (100 units/ml)/streptomycin (0.1 mg/ml) (Sigma #P4333) in 10% Fetal Bovine Serum (FBS) (Sigma #F0804). The cells were routinely passaged and grown to confluency (˜10^6 cells/ml). On the day of the experiment, THP-1 cells were harvested and resuspended into RPMI medium (without FBS). The cells were then counted and viability ([…]) checked by Trypan blue (Sigma #T8154). Appropriate dilutions were made to give a concentration of 625,000 cells/ml. To this diluted cell solution was added LPS (Sigma #L4524) to give a 1 μg/ml Final Assay Concentration (FAC). 40 μl of the final preparation was aliquoted into each well of a 96-well plate. The plate thus prepared was used for compound screening.
The following method step-by-step assay was followed for compound screening. • 1. Seed THP-1 cells (25,000 cells/well) containing 1.0 μg/ml LPS in 40 μl of RPMI medium (without FBS) in 96-well, black walled, clear bottom cell culture plates coated with poly-D-lysine (VWR #734-0317) • 2. Add 5 μl compound (8 points half-log dilution, with 10 μM top dose) or vehicle (DMSO 0.1% FAC) to the appropriate wells • 3. Incubate for 3 hrs at 37° C., 5% CO2 • 4. Add 5 μl nigericin (Sigma #N7143) (FAC 5 μM) to all wells • 5. Incubate for 1 hr at 37° C., 5% CO2 • 6. At the end of the incubation period, spin plates at 300×g for 3 mins and remove supernatant • 7. Then add 50 μl of resazurin (Sigma #R7017) (FAC 100 μM resazurin in RPMI medium without FBS) and incubate plates for a further 1-2 hrs at 37° C. and 5% CO2 • 8. Plates were read in an Envision reader at Ex 560 nm and Em 590 nm • 9. IC50 data is fitted to a non-linear regression equation (log inhibitor vs response-variable slope 4-parameters)
(Resazurin is reduced to fluorescent resorufin, in cell work by metabolically active cells.)

For test [2], the target named is T1, NLRP3. Nature of the test: Human whole blood IL-1β release assay. It is filed as cell-based. The arrangement: Plate out 80 μl of whole blood containing 1 μg/ml of LPS in 96-well, clear bottom cell culture plate; from tissue; host or cells: human whole blood from healthy donors. The settings on record: LPS 1 μg/ml, compound 3 hrs, nigericin 10 μM 1 hr, IL-1β by AlphaLisa, read-out: HWB IC50. As to the method:
For systemic delivery, the ability to inhibit NLRP3 when the compounds are present within the bloodstream is of great importance. For this reason, the NLRP3 inhibitory activity of a number of compounds in human whole blood was investigated in accordance with the following protocol.
Human whole blood in Li-heparin tubes was obtained from healthy donors from a volunteer donor panel. • 1. Plate out 80 μl of whole blood containing 1 μg/ml of LPS in 96-well, clear bottom cell culture plate (Corning #3585) • 2. Add 10 μl compound (8 points half-log dilution with 10 μM top dose) or vehicle (DMSO 0.1% FAC) to the appropriate wells • 3. Incubate for 3 hrs at 37° C., 5% CO2 • 4. Add 10 μl nigericin (Sigma #N7143) (10 μM FAC) to all wells • 5. Incubate for 1 hr at 37° C., 5% CO2 • 6. At the end of the incubation period, spin plates at 300×g for 5 mins to pellet cells and remove […] of supernatant and add to 96-well v-bottom plates for IL-1β analysis (note: these plates containing the supernatants can be stored at −80° C. to be analysed at a later date) • 7. IL-1β was measured according to the manufacturer protocol (Perkin Elmer-AlphaLisa IL-1 Kit AL220F-5000) • 8. IC50 data is fitted to a non-linear regression equation (log inhibitor vs response-variable slope 4-parameters)
On the technique in general: Bead proximity is the source of the signal in Alpha formats.

The structures appear in SMILES notation. Structures can show the parent of a compound that is named as a salt. Bounds are passed on as bounds.

T1 sequence (Q96P20 whole entry): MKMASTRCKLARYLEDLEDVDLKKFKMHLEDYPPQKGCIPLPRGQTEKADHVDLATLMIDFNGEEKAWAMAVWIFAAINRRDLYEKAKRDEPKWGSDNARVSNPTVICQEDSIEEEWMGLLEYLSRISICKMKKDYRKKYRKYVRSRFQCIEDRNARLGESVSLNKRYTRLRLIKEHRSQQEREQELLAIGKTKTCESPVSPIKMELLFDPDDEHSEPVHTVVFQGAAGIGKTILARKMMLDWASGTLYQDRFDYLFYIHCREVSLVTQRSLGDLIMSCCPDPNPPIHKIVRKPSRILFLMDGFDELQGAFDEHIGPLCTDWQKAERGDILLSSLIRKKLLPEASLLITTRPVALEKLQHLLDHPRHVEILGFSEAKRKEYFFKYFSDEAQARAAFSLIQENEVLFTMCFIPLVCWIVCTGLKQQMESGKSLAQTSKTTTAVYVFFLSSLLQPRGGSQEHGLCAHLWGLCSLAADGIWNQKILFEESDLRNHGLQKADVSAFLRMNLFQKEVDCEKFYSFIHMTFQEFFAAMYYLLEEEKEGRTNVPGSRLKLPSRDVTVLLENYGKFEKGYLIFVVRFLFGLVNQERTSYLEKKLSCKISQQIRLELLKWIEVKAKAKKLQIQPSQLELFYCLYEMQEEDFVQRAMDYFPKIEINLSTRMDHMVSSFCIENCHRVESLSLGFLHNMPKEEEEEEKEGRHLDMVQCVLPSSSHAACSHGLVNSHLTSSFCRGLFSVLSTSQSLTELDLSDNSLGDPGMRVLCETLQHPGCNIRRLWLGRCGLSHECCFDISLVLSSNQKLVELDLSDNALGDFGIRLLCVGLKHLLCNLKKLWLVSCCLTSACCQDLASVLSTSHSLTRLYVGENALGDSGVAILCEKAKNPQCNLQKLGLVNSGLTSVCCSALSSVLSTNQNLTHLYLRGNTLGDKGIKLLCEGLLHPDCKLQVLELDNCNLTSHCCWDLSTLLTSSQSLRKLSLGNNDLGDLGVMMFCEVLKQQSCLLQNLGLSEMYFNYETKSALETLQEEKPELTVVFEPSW

With `O=C1Nc2c(ccc3c2CCC3)-c2ccnc(c2)OCCCn2cc(F)c(n2)S(=O)(=O)N1` [Example 23, 16-fluoro-22-oxa-14λ^6-thia-11,13,18,24,28-pentaazapentacyclo-[21.3.1.1^15,18.0^2,10.0^5,9]octacosa-1(26),2,4,9,15(28),16,23(27),24-octaene-12,14,14-trione], the half-inhibitory concentration (IC50) against NLRP3 [1] and on NLRP3 [2] was 100 to 500 nM each time.
`O=C1Nc2c(ccc3c2CCC3)-c2cccc(c2)OCCCn2ccc(n2)S(=O)(=O)N1` [Example 21, 22-oxa-14λ^6-thia-11,13,18,28-tetraazapentacyclo-[21.3.1.1^15,18.0^2,10.0^5,9]-octacosa-1(26),2,4,9,15(28),16,23(27),24-octaene-12,14,14-trione] displayed a concentration for half-maximal inhibition (IC50) on NLRP3 [1] of 1000 to 5000 nM.
With `O=C1Nc2c(ccc3c2CCC3)-c2ccnc(c2)OCC2(CCOCC2)n2ccc(n2)S(=O)(=O)N1` [Example 39, 21′-oxa-14′λ^6-thia-11′,13′,18′,23′,27′-pentaaza-spiro[oxane-4,19′-pentacyclo-[20.3.1.1^15,18.0^2,10.0^5,9]-heptacosan]-1′(25′),2′,4′,9′,15′(27′),16′,22′(26′),23′-octaene-12′,14′,14′-trione], the figures for the IC50 against NLRP3 [1] and on NLRP3 [2] were no more than 100 nM and 100 to 500 nM, respectively.
`O=C1Nc2c(ccc3c2CCC3)-c2ccnc(c2)OCCCn2ccc(n2)S(=O)(=O)N1` [Example 7, 22-oxa-14λ^6-thia-11,13,18,24,28-pentaazapentacyclo-[21.3.1.1^15,18.0^2,10.0^5,9]octacosa-1(26),2,4,9,15(28),16,23(27),24-octaene-12,14,14-trione]: the IC50 against NLRP3 [1] and on NLRP3 [2] was 500 to 1000 nM each time.
As to `O=C1Nc2c(ccc3c2CCC3)-c2ccnc(c2)OCCn2cc(F)c(n2)S(=O)(=O)N1` [Example 25, 16-fluoro-21-oxa-14λ^6-thia-11,13,18,23,27-pentaazapentacyclo-[20.3.1.1^15,18.0^2,10.0^5,9]heptacosa-1(25),2,4,9,15(27),16,22(26),23-octaene-12,14,14-trione], the IC50 against NLRP3 [1] and at NLRP3 [2] was no more than 100 nM throughout.
With `O=C1Nc2c(ccc3c2CCC3)-c2ccnc(c2)OCCn2ccc(n2)S(=O)(=O)N1` [Example 20, 21-oxa-14λ^6-thia-11,13,18,23,27-pentaazapentacyclo-[20.3.1.1^15,18.0^2,10.0^5,9]heptacosa-1(25),2,4,9,15(27),16,22(26),23-octaene-12,14,14-trione], the IC50 was no more than 100 nM against NLRP3 [1] and 100 to 500 nM on NLRP3 [2].
For `O=C1Nc2c3c(cc(F)c2-c2ccnc(c2)OCCn2cc(F)c(n2)S(=O)(=O)N1)CCC3` [Example 40, 3,16-difluoro-21-oxa-14λ^6-thia-11,13,18,23,27-pentaaza-pentacyclo[20.3.1.1^15,18.0^2,10.0^5,9]-heptacosa-1(25),2(10),3,5(9),15(27),16,22(26),23-octaene-12,14,14-trione], in that order: no more than 100 nM and 100 to 500 nM.
For `CC1(C)COc2cc(c(F)cn2)-c2ccc3c(c2NC(=O)NS(=O)(=O)c2ccn1n2)CCC3` [Example 38, 25-fluoro-19,19-dimethyl-21-oxa-14λ^6-thia-11,13,18,23,27-pentaaza-pentacyclo[20.3.1.1^15,18.0^2,10.0^5,9]-heptacosa-1(25),2,4,9,15(27),16,22(26),23-octaene-12,14,14-trione, sodium salt], in that order: 100 to 500 nM and 1000 to 5000 nM.
In the same order, the values of `Cc1cc2c(c3c1-c1ccnc(c1)OCC(C)(C)n1cc(F)c(n1)S(=O)(=O)NC(=O)N3)CCC2` [Example 26] are no more than 100 nM and 100 to 500 nM.
For the molecule `O=C1Nc2c(ccc3c2CCC3)-c2ccnc(c2)OCCOCCn2ccc(n2)S(=O)(=O)N1` [Example 3, 21,24-dioxa-14λ^6-thia-11,13,18,26,30-pentaazapentacyclo-[23.3.1.1^15,18.0^2,10.0^5,9]triaconta-1(29),2(10),3,5(9),15(30),16,25,27-octaene-12,14,14-trione], the IC50 against NLRP3 [1] and on NLRP3 [2] was 100 to 500 nM each time.
Turning to `CN(C)Cc1cc2nn1CCCOc1cc(ccn1)-c1ccc3c(c1NC(=O)NS2(=O)=O)CCC3` [Example 22, 17-[(dimethylamino)-methyl]-22-oxa-14λ^6-thia-11,13,18,24,28-pentaazapentacyclo-[21.3.1.1^15,18.0^2,10.0^5,9]octacosa-1(26),2,4,9,15(28),16,23(27),24-octaene-12,14,14-trione], the 50% inhibitory concentration (IC50) at NLRP3 [1] and at NLRP3 [2] was 100 to 500 nM each time.
As for `CC(C)c1cc(F)cc2c1NC(=O)NS(=O)(=O)c1ccn(n1)CCCCCOc1cc-2ccn1` [Example 10, 4-fluoro-6-(propan-2-yl)-21-oxa-11λ^6-thia-8,10,15,23,27-pentaazatetracyclo-[20.3.1.1^12,15.0^2,7]heptacosa-1(25),2(7),3,5,12(27),13,22(26),23-octaene-9,11,11-trione], the figures for the IC50 against NLRP3 [1] and at NLRP3 [2] were 500 to 1000 nM and 1000 to 5000 nM, respectively.
For `CC1(C)COc2cc(ccn2)-c2c(F)cc3c(c2NC(=O)NS(=O)(=O)c2nn1cc2F)CCC3` [Example 41, 3,16-difluoro-19,19-dimethyl-21-oxa-14λ^6-thia-11,13,18,23,27-pentaazapentacyclo-[20.3.1.1^15,18.0^2,10.0^5,9]heptacosa-1(25),2,4,9,15(27),16,22(26),23-octaene-12,14,14-trione, sodium salt], in that order: no more than 100 nM and 100 to 500 nM.
With `CC1(C)COc2nccc(c2F)-c2ccc3c(c2NC(=O)NS(=O)(=O)c2ccn1n2)CCC3` [Example 32, 26-fluoro-19,19-dimethyl-21-oxa-14λ^6-thia-11,13,18,23,27-pentaaza-pentacyclo[20.3.1.1^15,18.0^2,10.0^5,9]-heptacosa-1(26),2,4,9,15(27),16,22,24-octaene-12,14,14-trione, sodium salt], the IC50 at NLRP3 [1] and at NLRP3 [2] was 100 to 500 nM throughout.
As to `Cc1cc2c(c3c1-c1ccnc(c1)OCCn1cc(F)c(n1)S(=O)(=O)NC(=O)N3)CCC2` [Example 29, 16-fluoro-3-methyl-21-oxa-14λ^6-thia-11,13,18,23,27-pentaaza-pentacyclo[20.3.1.1^15,18.0^2,10.0^5,9]-heptacosa-1(25),2(10),3,5(9),15(27),16,22(26),23-octaene-12,14,14-trione, sodium salt], the IC50 is no more than 100 nM against NLRP3 [1] and 100 to 500 nM on NLRP3 [2].
`O=C1Nc2c(ccc3c2CCC3)-c2ccnc(c2)OCc2cc(nn2C2CC2)S(=O)(=O)N1` [Example 16, 17-cyclopropyl-20-oxa-14λ^6-thia-11,13,16,17,22-pentaazapentacyclo-[19.3.1.1^15,18.0^2,10.0^5,9]hexacosa-1(24),2,4,9,15,18(26),21(25),22-octaene-12,14,14-trione]: the IC50 on NLRP3 [1] is 1000 to 5000 nM.
The same measure, in the same setting: next, `O=C1Nc2c3c(cc4c2C(CCCCn2ccc(n2)S(=O)(=O)N1)CC4)CCC3` (racemic) [Example 49, 10λ^6-thia-6,11,13,25-tetraazapentacyclo[12.9.1.1^6,9.0^15,19.0^21,24]pentacosa-7,9(25),14,19,21(24)-pentaene-10,10,12-trione]: 1000 to 5000 nM.

For orientation: IC50 means the concentration that gives 50% inhibition.
